Laboratory results taken from patent US20260225997A1, “IONIZABLE AMINE LIPIDS” (Intellia Therapeutics, Inc., priority 2018, published 2026).
One block for each compound: values may come before it.

Key:
TTR = TTR editing in mouse liver by NGS after i.v. LNP delivery of Cas9 mRNA and sgRNA; type: in vivo; settings: for Editing %: Example 56: 0.1 mpk i.v., G282; for Editing % / Editing Mean % Indel / TTR Editing (%) / % Editing (TTR, liver): CD-1 female mice; for % Editing (TTR, liver): Example 55: 0.1 mpk i.v.
How it was run: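 Cas9 mRNA and chemically modified sgRNA were co-formulated in LNPs made of an ionizable amine lipid, DSPC, cholesterol and PEG-2k-DMG at a 6.0 N:P ratio. CD-1 female mice aged 6-10 weeks received tail-vein injections of 0.2 mL. Liver genomic DNA was then amplified around the target site and sequenced on an Illumina MiSeq, with editing calculated as indel-containing reads over total reads.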

[1] = LNP average particle size and polydispersity by dynamic light scattering (Malvern Zetasizer); type: physicochemical
How it was run: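 LNPs diluted in PBS to a count rate of about 200–400 kcps and measured by dynamic light scattering. Size given as intensity-weighted Z-average diameter, with number-average diameter and polydispersity index also reported.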

[2] = Example 59: 0.1 mpk i.v., 7 days post-dose, G282 1:1
[3] = Example 61: 0.1 mpk i.v., 7 days post-dose, G282 1:1
[4] = Table 12, Example 56: LNP, G282
[5] = Table 16, Example 59: LNP, G282 1:1
[6] = Table 20, Example 61: LNP, G282 1:1
[7] = Example 58: 0.1 mpk i.v., 6 days post-dose, G282 1:1
[8] = Example 62: 0.03 mpk i.v., 7 days post-dose, G282 1:2
[9] = Example 62: 0.1 mpk i.v., 7 days post-dose, G282 1:2
[10] = Table 14, Example 58: LNP, G282 1:1
[11] = Table 22, Example 62: LNP, G282 1:2
[12] = Example 53: 0.1 mpk i.v., 6 days post-dose, G282 1:1
[13] = Example 53: 0.3 mpk i.v., 6 days post-dose, G282 1:1
[14] = Example 60: 0.1 mpk i.v., 6 days post-dose, G502 1:2
[15] = Example 63: 0.03 mpk i.v., 7 days post-dose, G282 1:1
[16] = Example 63: 0.1 mpk i.v., 7 days post-dose, G282 1:1
[17] = Table 3, Example 52: LNP, Cas9 mRNA + sgRNA (G650) 1:1 w/w, N:P 6.0
[18] = Table 5, Example 53: LNP with gRNA G282 (TTR)
[19] = Table 5, Example 53: LNP with gRNA G650 (B2M)
[20] = Table 8, Example 54: LNP, G650 (B2M) 1:1
[21] = Table 10, Example 55: LNP, G282 1:1
[22] = Table 18, Example 60: LNP, G502 1:2
[23] = Table 24, Example 63: LNP, G282 1:1
[24] = Table 26, Example 64: LNP, G282 1:1

Num Ave Size (nm) [1, 10]: 54.25 nm | PDI [1, 10]: 0.056 | Z-Ave Size (nm) [1, 10]: 68.72 nm | Num Ave Size (nm) [1, 11]: 44.93 nm | PDI [1, 11]: 0.072 | Z-Ave Size (nm) [1, 11]: 62.89 nm
SMILES: CCCCCCCCOC(CCCCCCCN(CCO)CCCCCCCC(=O)OC(CC)CCCCCCCC)OCCCCCCCC (centres unmarked) [Compound 17, undecan-3-yl 8-((8,8-bis(octyloxy)octyl)(2-hydroxyethyl)amino)octanoate]
Editing Mean % Indel (TTR; [7]): 40.8% | Editing Mean % Indel (TTR; [8]): 4.0% | Editing Mean % Indel (TTR; [9]): 45.9%

Num Ave Size (nm) [1, 17]: 57.04 nm | PDI [1, 17]: 0.105 | Z-Ave Size (nm) [1, 17]: 79.49 nm | Num Ave Size (nm) [1, 18]: 61.19 nm | PDI [1, 18]: 0.008 | Z-Ave Size (nm) [1, 18]: 75.77 nm | Num Ave Size (nm) [1, 19]: 65.11 nm | PDI [1, 19]: 0.028 | Z-Ave Size (nm) [1, 19]: 80.96 nm | Num Ave Size (nm) [1, 21]: 55.38 nm | PDI [1, 21]: 0.05 | Z-Ave Size (nm) [1, 21]: 69.94 nm | Num Ave Size (nm) [1, 10]: 55.38 nm | PDI [1, 10]: 0.05 | Z-Ave Size (nm) [1, 10]: 69.94 nm | Num Ave Size (nm) [1, 5]: 57.78 nm | PDI [1, 5]: 0.04 | Z-Ave Size (nm) [1, 5]: 72.21 nm | Num Ave Size (nm) [1, 22]: 58.01 nm | PDI [1, 22]: 0.037 | Z-Ave Size (nm) [1, 22]: 74.5 nm | Num Ave Size (nm) [1, 11]: 58.01 nm | PDI [1, 11]: 0.037 | Z-Ave Size (nm) [1, 11]: 74.5 nm | Num Ave Size (nm) [1, 23]: 52 nm | PDI [1, 23]: 0.06 | Z-Ave Size (nm) [1, 23]: 70 nm
SMILES: CCCCCCCCCOC(=O)CCCCCCCN(CCO)CCCCCCCC(OCCCCCCCC)OCCCCCCCC [Compound 1, nonyl 8-((8,8-bis(octyloxy)octyl)(2-hydroxyethyl)amino octanoate]
TTR Editing (%) (TTR; [12]): 55.4% | TTR Editing (%) (TTR; [13]): 59.3% | TTR editing in the liver compared with Compound 19 formulations (TTR; Example 53 text: 0.1 and 0.3 mpk): higher TTR editing in the liver than Compound 19 formulations at each dose | editing of TTR (TTR; Example 53 text: both the 0.1 mpk and 0.3 mpk doses): 55-60% | % Editing (TTR, liver) (TTR; 7 days post-dose, G282 1:1): 43% | Editing Mean % Indel (TTR; [7]): 29.5% | Editing Mean % Indel (TTR; [2]): 41.6% | Editing Mean % Indel (TTR; [14]): 46.3% | Editing Mean % Indel (TTR; [8]): 8.9% | Editing Mean % Indel (TTR; [9]): 34.2% | Editing Mean % Indel (TTR; [15]): 10.86% | Editing Mean % Indel (TTR; [16]): 41.10%

More lines, now with the values behind:

SMILES: CCCCCCCCCOC(=O)CCCCCCCN(CCO)CCCCCCCC(=O)OC(CCCCCCCC)CCCCCCCC [Compound 18, heptadecan-9-yl 8-((2-hydroxyethyl)(8-(nonyloxy)-8-oxooctyl)amino)octanoate, reference compound]
Editing % (TTR; 7 days post-dose): 33% | Editing Mean % Indel (TTR; [2]): 41.6% | Editing Mean % Indel (TTR; [3]): 26.8% | Num Ave Size (nm) [1, 4]: 69.77 nm | PDI [1, 4]: 0.112 | Z-Ave Size (nm) [1, 4]: 106.6 nm | Num Ave Size (nm) [1, 5]: 53.06 nm | PDI [1, 5]: 0.093 | Z-Ave Size (nm) [1, 5]: 75.79 nm | Num Ave Size (nm) [1, 6]: 52.25 nm | PDI [1, 6]: 0.083 | Z-Ave Size (nm) [1, 6]: 74.67 nm

SMILES: CCCCC/C=C\C/C=C\CCCCCCCC(=O)OCC(COC(=O)CCC(OCCCCCCCC)OCCCCCCCC)COC(=O)OCCCN(CC)CC (centres unmarked) [Compound 19, 3-((4,4-bis(octyloxy)butanoyl)oxy)-2-(((((3-(diethylamino)propoxy))-carbonyl)oxy)methyl)propyl (9Z,12Z)-octadeca-9,12-dienoate, reference compound]
TTR Editing (%) (TTR; [12]): 13.8% | TTR Editing (%) (TTR; [13]): 45.9% | % Editing (TTR, liver) (TTR; 7 days post-dose, G282 1:1): 29% | Editing % (TTR; 7 days post-dose): 15% | Editing Mean % Indel (TTR; [2]): 29.3% | Editing Mean % Indel (TTR; [14]): 41.4% | Editing Mean % Indel (TTR; [3]): 35.9% | Editing Mean % Indel (TTR; [8]): 7.0% | Editing Mean % Indel (TTR; [9]): 27.1% | Editing Mean % Indel (TTR; [15]): 30.18% | Editing Mean % Indel (TTR; [16]): 56.02% | Editing Mean % Indel (TTR; Example 64: Dose 0.03 mpk (table) i.v., 7 days post-dose, G282 1:1): 5.2% | Num Ave Size (nm) [1, 17]: 64.97 nm | PDI [1, 17]: 0.056 | Z-Ave Size (nm) [1, 17]: 82.71 nm | Num Ave Size (nm) [1, 18]: 62.86 nm | PDI [1, 18]: 0.015 | Z-Ave Size (nm) [1, 18]: 79.83 nm | Num Ave Size (nm) [1, 19]: 64.97 nm | PDI [1, 19]: 0.056 | Z-Ave Size (nm) [1, 19]: 82.71 nm | Num Ave Size (nm) [1, 20]: 64.97 nm | PDI [1, 20]: 0.056 | Z-Ave Size (nm) [1, 20]: 82.71 nm | Num Ave Size (nm) [1, 21]: 64.95 nm | PDI [1, 21]: 0.025 | Z-Ave Size (nm) [1, 21]: 81.76 nm | Num Ave Size (nm) [1, 4]: 63.19 nm | PDI [1, 4]: 0.047 | Z-Ave Size (nm) [1, 4]: 79.18 nm | Num Ave Size (nm) [1, 10]: 71.1 nm | PDI [1, 10]: 0.007 | Z-Ave Size (nm) [1, 10]: 84.99 nm | Num Ave Size (nm) [1, 5]: 71.49 nm | PDI [1, 5]: 0.02 | Z-Ave Size (nm) [1, 5]: 86.84 nm | Num Ave Size (nm) [1, 22]: 73.15 nm | PDI [1, 22]: 0.033 | Z-Ave Size (nm) [1, 22]: 88.6 nm | Num Ave Size (nm) [1, 6]: 71.49 nm | PDI [1, 6]: 0.02 | Z-Ave Size (nm) [1, 6]: 86.84 nm | Num Ave Size (nm) [1, 11]: 73.15 nm | PDI [1, 11]: 0.033 | Z-Ave Size (nm) [1, 11]: 88.6 nm | Num Ave Size (nm) [1, 23]: 66 nm | PDI [1, 23]: 0.03 | Z-Ave Size (nm) [1, 23]: 82 nm | Num Ave Size (nm) [1, 24]: 65 nm | PDI [1, 24]: 0.03 | Z-Ave Size (nm) [1, 24]: 83 nm

SMILES: CCCCCCCCOC(CCCCCCCN(CCO)CCCCCCCC(=O)OC(CC)CCCCCC)OCCCCCCCC (centres unmarked) [Compound 28, nonan-3-yl 8-((8,8-bis(octyloxy)octyl)(2-hydroxyethyl)amino)octanoate]
Editing Mean % Indel (TTR; [15]): 20.74% | Editing Mean % Indel (TTR; [16]): 42.36% | Num Ave Size (nm) [1, 23]: 42 nm | PDI [1, 23]: 0.30 | Z-Ave Size (nm) [1, 23]: 78 nm
